# According to US7332489B2, “Methods and compositions of novel triazine compounds” (Reddy US Therapeutics, Inc., priority 2003, dated 2008):
# Where a name gives a salt, the structure may show the parent alone. Read-outs that look alike come from different tables or passages of the source.
# Key:
# [1] = tested on: Human aortic smooth muscle cells; test: Smooth muscle cell proliferation assay / anti-proliferation assay (perlecan); conditions: for Proliferation Data (result in words): screens at 5 & 10 uM; for activity in anti-proliferation assay (Perlecan), in words: using the same activity scale used in Table 3
# Protocol: Human aortic smooth muscle cells (Clonetics) were used. Cells were grown in basal medium containing 5% fetal bovine serum supplemented with growth factors, basic fibroblast growth factor, epidermal growth factor and insulin. […] The cells were then serum starved for 24 h to induce quiescence. Fresh growth medium containing no compound or 10 μM compound was then added and further incubated for 24 h. Cell number was determined by using a cell proliferation assay kit (Celltiter96 AQueous from Promega).
# TNF-α induced IL-6 = test: TNF-α-induced IL-6 production determined by IL-6 ELISA; assay type: cell-based; conditions: for Inflammation Data (result in words): concentration not given; for activity at 10 µM / inhibition at 10 µM: Homo sapiens
# How it was run: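 Human aortic endothelial cells grown to ≥90% confluence, then treated with compounds and stimuli in serum-free medium with 0.2% albumin. Secreted IL-6 in collected media measured by sandwich ELISA (2 ug/ml capture, 200 ng/ml biotinylated detection antibody, streptavidin-HRP), read at 450 nm.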
# cells = test: Cytotoxicity/Lactate Dehydrogenase assay; assay type: cell-based; conditions: toxic or cause cell death; concentrations (uM) given
# Protocol: An appropriate number of cells are plated in four 96-well plates, one plate for “day 0” and three plates for days 1-3. Cells are treated with at least one compound of the present invention in varying concentrations with and without the apoptosis inducer cisplatin (2 μM) (“+cis” or “-cis”). Unteated cells are also assayed with and without cisplatin. After transfection, the plates are incubated at 37° C. overnight.
# An appropriate number of cells are plated in four 96-well plates, one plate for “day 0” and three plates for days 1-3. Cells are treated with at least one compound of the present invention in varying concentrations. The negative control cells have normal media conditions, a duplicate set of wells is treated with the composition in which the compound is provided, but there is no added compound and the positive control cells are treated with the apoptosis inducer cisplatin (2 μM). All of the cells are transfected with a vector having a promoter that is responsive to apoptosis conditions. When apoptosis occurs, the promoter is turned on and the lactic dehydrogenase gene is activated and the enzyme protein is made and active. Activity is easily detected with a color change. After transfection, the plates are incubated at 37° C. overnight.
# About 8 mls of warmed alpha MEM LDH lysis buffer (2% Triton X100) and about 8 mls of culture media (1/2 dilution) are combined. Two 96-well v-bottom plates are prepared, one labeled “lysis” and one labeled “supernatant.” To lyse the cells, about 200 μl Alpha MEM lysis buffer (diluted 1/2) is added to one test plate from which the supernatant has been removed and added to the plate labeled supernatant. After mixing, about 200 μl of lysed cells are transferred to the lysis plate. Both the lysis and supernatant plates are centrifuged at about 1600 rpm for about 10 min. After centrifugation, about 100 μl of both the supernatant or lysate is transferred to corresponding 96-well flat-bottomed plates.
# The assay for cytotoxicity uses the Cytotoxicity Detection Kit (LDH) from Roche Diagnostics Corp. (Indianapolis, Ind.). Using the directions provided, the dye solution is mixed and added each well of the lysate and supernatant plate and incubated for up to 20-25 min at 15-25° C. in the dark.
# [2] = Homo sapiens, read-out: Activity (note 1), anti-proliferation assay (perlecan)
# [3] = Homo sapiens, read-out: Avg IC-50, anti-proliferation assay (perlecan)
# [4] = 24 h, Table 5, first part, class = % of control IL6 production, read-out: Inhibition of TNF-induced IL6 production
smiles,measurement,setting,value
COc1ccc(Nc2nc(NC3CCCCCC3)nc(N3CCCC3CO)n2)cc1Cl (stereo not shown),"Proliferation Data, cell morphology (rounding, blunting, morphology change)",[1],rounding
same,Proliferation Data (result in words),[1],Did not pass 5 & 10 uMscreens
same,Inflammation Data (result in words),TNF-α induced IL-6,Not Active
COc1ccc(Nc2nc(NC3CCCCCC3)nc(N3CCN(C)CC3)n2)cc1Cl,"Proliferation Data, cell morphology (rounding, blunting, morphology change)",[1],blunting androunding
same,Proliferation Data (result in words),[1],Did not pass 5 & 10 uMscreens
same,"Inflammation Data, activity in words at 5 uM",TNF-α induced IL-6; 5 uM,not active
same,"Inflammation Data, cell death at 5 uM",TNF-α induced IL-6; 5 uM,25%
same,"Inflammation Data, cell death at 10 uM",TNF-α induced IL-6; 10 uM,total cell death
CCc1occc(=O)c1Oc1nc(Nc2ccc(OC)c(Cl)c2)nc(NC2CCCCCC2)n1,Proliferation Data (result in words),[1],Not active at 5 & 10 uM
same,"Inflammation Data, cell death at 10 uM",TNF-α induced IL-6; 10 uM,20%
COc1ccc(Nc2nc(NC3CCCCCC3)nc(OC3CCN(C)CC3)n2)cc1Cl,"Proliferation Data, cell morphology (rounding, blunting, morphology change)",[1],rounding at 5 & 10 uM
same,"Inflammation Data, cell death at 10 uM",TNF-α induced IL-6; 10 uM,total cell death
COc1ccc(Nc2nc(NC3CCCCCC3)nc(NC3CCN(Cc4ccccc4)CC3)n2)cc1F,"Proliferation Data, cell morphology (rounding, blunting, morphology change)",[1],cell bluntingat 3 uM and rounding at 5 uM
same,"Inflammation Data, cell death at 5 uM",TNF-α induced IL-6; 5 uM,25%
same,"Inflammation Data, cell death at 10 uM",TNF-α induced IL-6; 10 uM,total cell death
"CCN1CCCC1CNc1nc(Nc2cccc3cccnc23)nc(NC2CCCCCC2)n1 (stereo not shown) [Compound 5, N^2-cycloheptyl-N^4-[(1-ethyl-2-pyrrolidinyl)methyl]-N^6-(8-quinolinyl)-1,3,5-triazine-2,4,6-triamine]",Toxicity,cells,toxic
"CCN1CCCC1CNc1nc(Nc2ccc(Cl)c(Cl)c2)nc(NC2CCCCCC2)n1 (stereo not shown) [Compound 7, N^2-cycloheptyl-N^4-(3,4-dichlorophenyl)-N^6-[(1-ethyl-2-pyrrolidinyl)methyl]-1,3,5-triazine-2,4,6-triamine]",Toxicity,cells,toxic
"CCN1CCCC1CNc1nc(Nc2ccc(F)c(F)c2)nc(NC2CCCCCC2)n1 (stereo not shown) [Compound 8, N^2-cycloheptyl-N^4-(3,4-difluorophenyl)-N^6-[(1-ethyl-2-pyrrolidinyl)methyl]-1,3,5-triazine-2,4,6-triamine]",Toxicity,cells,toxic
"CCN1CCCC1CNc1nc(Nc2ccc(OC(F)(F)F)cc2)nc(NC2CCCCCC2)n1 (stereo not shown) [Compound 9, N^2-cycloheptyl-N^4-[(1-ethyl-2-pyrrolidinyl)methyl]-N^6-[4-(trifluoromethoxy)phenyl]-1,3,5-triazine-2,4,6-triamine]",Toxicity,cells,toxic
"CCN1CCCC1CNc1nc(Nc2ccc(Cl)cc2)nc(NC2CCCCCC2)n1 (stereo not shown) [Compound 12, N^2-(4-chlorophenyl)-N^4-cycloheptyl-N^6-[(1-ethyl-2-pyrrolidinyl)methyl]-1,3,5-triazine-2,4,6-triamine]",Toxicity,cells,toxic
"CCN1CCCC1CNc1nc(Nc2ccc(Br)cc2)nc(NC2CCCCCC2)n1 (stereo not shown) [Compound 13, N^2-(4-bromophenyl)-N^4-cycloheptyl-N^6-[(1-ethyl-2-pyrrolidinyl)methyl]-1,3,5-triazine-2,4,6-triamine]",Toxicity,cells,toxic
"COc1ccc(Nc2nc(NC3CCCCCC3)nc(N(C)C3CCN(C)CC3)n2)cc1Br [Compound 123, N-(3-Bromo-4-methoxy-phenyl)-N′-cycloheptyl-N″-methyl-N″-(1-methyl-piperidin-4-yl)-[1,3,5]triazine-2,4,6-triamine]",IC50,[1]; [2],> 7 µM
"CCN1CCC[C@H]1CNc1nc(Nc2ccc(OC)c(F)c2)nc(NC2CCCCCC2)n1 [Compound 139, N^2-cycloheptyl-N^4-((S)-1-ethyl-pyrrolidin-2-ylmethyl)-N^6-(3-fluoro-4-methoxyphenyl)-1,3,5-triazine-2,4,6-triamine]",IC50,[1]; [2],3 to 7 µM
same,IC50,[1]; [3],4 to 5 µM
same,activity at 10 µM,TNF-α induced IL-6; [4],0 to 25%
"CCN1CCC[C@@H]1CNc1nc(Nc2ccc(OC)c(F)c2)nc(NC2CCCCCC2)n1 [Compound 140, N^2-cycloheptyl-N^4-((R)-1-ethyl-pyrrolidin-2-ylmethyl)-N^6-(3-fluoro-4-methoxyphenyl)-1,3,5-triazine-2,4,6-triamine]",IC50,[1]; [2],3 to 7 µM
same,IC50,[1]; [3],4 to 5 µM
same,"% IL6 production compare to TNF stimulation of IL6 (100%), Compds tested @ 10 uM HAEC, IL6","TNF-α induced IL-6; HAEC, 10 uM compound, TNF stimulation = 100%",12.57%
same,activity at 10 µM,TNF-α induced IL-6; [4],0 to 25%
"COc1ccc(Nc2nc(NC3CCCCCC3)nc(N(C)C3CCN(C)CC3)n2)cc1F [Compound 160, N^2-cycloheptyl-N^4-(3-fluoro-4-methoxyphenyl)-N^6-methyl-N^6-(1-methyl-piperidin-4-yl)-1,3,5-triazine-2,4,6-triamine, hydrogen chloride salt]",IC50,"[1]; read-out: Activity (note 1), anti-proliferation assay (perlecan)",3 to 7 µM
same,IC50,"[1]; read-out: Avg IC-50, anti-proliferation assay (perlecan)",4 to 5 µM
same,activity at 10 µM,"TNF-α induced IL-6; 24 h, read-out: % IL6 production compare to TNF stimulation of IL6 (100%), Compds tested @ 10 uM HAEC, IL6",1%
same,activity at 10 µM,"TNF-α induced IL-6; 24 h, read-out: Inhibition of TNF-induced IL6 production",0 to 25%
"COc1ccc(Nc2nc(NC3CCCCCC3)nc(N(C)C3CCN(C)CC3)n2)cc1F [Compound 167, N^2-cycloheptyl-N^4-(3-fluoro-4-methoxy-phenyl)-N^6-methyl-N^6-(1-methyl-piperidin-4-yl)-1,3,5-triazine-2,4,6-triamine maleate salt]",IC50,"[1]; read-out: Activity (note 1), anti-proliferation assay (perlecan), maleate salt",> 7 µM
same,"% IL6 production compare to TNF stimulation of IL6 (100%), HAEC, IL6, @ 5 uM","TNF-α induced IL-6; HAEC, TNF stimulated, compound 5 uM (bracketed value), maleate salt",25%
"COc1ccc(Nc2nc(NC3CCCCCC3)nc(N(C)Cc3ccccc3)n2)cc1 [Compound 178, N-Benzyl-N′-cycloheptyl-N″-(4-methoxy-phenyl)-N-methyl-[1,3,5]triazine-2,4,6-tri-amine]",inhibition at 10 µM,"TNF-α induced IL-6; 24 h, Table 7, first part, read-out: Inhibition of TNF-induced IL6 production",65 to 85%
"CN1CCC(N(C)c2nc(NCCC3OCCO3)nc(Nc3ccc4ccccc4c3)n2)CC1 [Compound 179, N-(2-[1,3]Dioxolan-2-yl-ethyl)-N′-methyl-N′-(1-meth-yl-piperidin-4-yl)-N″-naphthalen-2-yl-[1,3,5]tri-azine-2,4,6-triamine]",inhibition at 10 µM,"TNF-α induced IL-6; 24 h, read-out: Inhibition of TNF-induced IL6 production, Table 7, first part",65 to 85%
same,inhibition at 10 µM,"TNF-α induced IL-6; 24 h, read-out: Inhibition of TNF-induced IL6 production, Table 7, second part, column 1",50 to 65%
"COc1ccc(Nc2nc(NC3CCCCCC3)nc(N(C)C3CCN(C)CC3)n2)cc1F [N^2-cycloheptyl-N^4-(3-fluoro-4-methoxyphenyl)-N^6-methyl-N^6-(1-methyl-piperidin-4-yl)-1,3,5-triazine-2,4,6-triamine]","activity in anti-proliferation assay (Perlecan), in words",[1],medium or moderate activity
"CN1CCC(N(C)c2nc(Nc3ccc4ccccc4c3)nc(NC3CCCCCC3)n2)CC1 [N^2-cycloheptyl-N^4-methyl-N^4-(1-methyl-piperidin-4-yl)-N^6-naphthalen-2-yl-1,3,5-triazine-2,4,6-triamine]","activity in anti-proliferation assay (Perlecan), in words",[1],high activity
COc1ccc(Nc2nc(NC3CCCCCC3)nc(OC3CCCN(C(C)=O)C3)n2)cc1Cl (stereo not shown) [drawing 1597],Proliferation Data (result in words),[1],Not active at 5 & 10 uM
same,"Inflammation Data, inhibition at 10 uM",TNF-α induced IL-6; 10 uM,complete inhibition at 10 uM
COc1ccc(Nc2nc(NC3CCCCCC3)nc(OC(C)C)n2)cc1Cl [drawing 1598],inhibition at 10 µM,"TNF-α induced IL-6; 10 uM, read-out: Inflammation Data, inhibition at 10 uM",< 25%
COc1ccc(Nc2nc(NC3CCCCCC3)nc(OCC3CCCN3)n2)cc1Cl (stereo not shown) [drawing 1599],Proliferation Data (result in words),[1],Not active at 5 & 10 uM
COc1ccc(Nc2nc(NC3CCCCCC3)nc(N3CCSCC3)n2)cc1Cl [drawing 1604],Inflammation Data (result in words),TNF-α induced IL-6,Not Active
COc1ccc(Nc2nc(NC3CCCCCC3)nc(Oc3ccccc3F)n2)cc1Cl [drawing 1605],Inflammation Data (result in words),TNF-α induced IL-6,Not Active
COc1ccc(Nc2nc(NC3CCCCCC3)nc(NC3CCN(Cc4ccccc4)CC3)n2)cc1Cl [drawing 1615],"Proliferation Data, cell morphology (rounding, blunting, morphology change)",[1],cell blunting at 1 uMand rounding at 5 uM
same,"Inflammation Data, cell death at 5 uM",TNF-α induced IL-6; 5 uM,20%
same,"Inflammation Data, cell death at 10 uM",TNF-α induced IL-6; 10 uM,> 50%
